From EP4527828A1, “BIPHENYL COMPOUND, PHARMACEUTICAL COMPOSITION, METHOD FOR PREPARING SAME, AND USE THEREOF” (Longivitron (Suzhou) Biotechnology Co., Ltd, priority 2022, dated 2023)
Where two headings read alike, the source gives them in different places.

What was measured:
Human LAG3 protein = biological target: T1, Human LAG3 protein (Homo sapiens, UniProt P18627); experiment: SPR interaction assay, CM5 chip amino coupling, human LAG3; format: binding; details: for Rmax / Kd / Note / kon / koff: ligand Human LAG3 protein; for Kd: Compound 9 fitted in steady-state mode; for Note: bound or not bound; for kon: read-out: Ka; for koff: read-out: Kd
T1 sequence (P18627 23-525): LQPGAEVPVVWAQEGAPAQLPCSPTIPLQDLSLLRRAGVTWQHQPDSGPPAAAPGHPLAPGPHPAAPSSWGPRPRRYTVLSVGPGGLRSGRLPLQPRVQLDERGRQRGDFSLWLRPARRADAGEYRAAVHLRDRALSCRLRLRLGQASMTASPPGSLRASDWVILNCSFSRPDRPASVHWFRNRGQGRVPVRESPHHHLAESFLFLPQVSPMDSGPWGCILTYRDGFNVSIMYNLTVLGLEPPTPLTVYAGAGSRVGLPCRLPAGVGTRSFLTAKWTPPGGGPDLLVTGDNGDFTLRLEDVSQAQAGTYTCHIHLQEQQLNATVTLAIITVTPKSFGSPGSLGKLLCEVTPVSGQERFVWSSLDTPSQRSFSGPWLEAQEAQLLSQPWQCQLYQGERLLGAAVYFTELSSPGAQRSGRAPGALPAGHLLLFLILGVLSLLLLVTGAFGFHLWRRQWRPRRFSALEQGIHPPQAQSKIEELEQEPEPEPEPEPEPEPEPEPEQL
Description: A surface plasmon is an electromagnetic wave on a metal surface and is generated by the interaction of photons and electrons which are freely vibrated. Surface plasmon resonance (SPR) is an optical phenomenon that occurs on the surfaces of two media, and such a phenomenon can be induced by photons or electrons. When light enters an optically thinner medium from an optically denser medium, the phenomenon of total reflection occurs, and an evanescent wave is generated and enters the optically thinner medium. When the totally reflected evanescent wave meets the plasmon wave on the metal surface, resonance may occur, the energy of the reflected light decreases, and a resonance peak occurs on the energy spectrum of the reflected light. Such a resonance is called surface plasmon resonance. The angle of incidence causing the surface plasmon resonance is called an SPR angle. An SPR biosensor provides a sensitive, non-labeled detection technique for monitoring intermolecular interactions in real time. The sensor detects the change in the SPR angle, and the SPR is related to the refractive index of the metal surface. When an analyte binds to the chip surface, the refractive index of the chip surface changes, thus causing the change in the SPR angle. This is the basic principle for the SPR biosensor to detect intermolecular interactions in real time. During the interaction analysis, the change in the SPR angle is recorded on the sensorgram in real time.
Through the information query, the theoretical isoelectric point of the LAG3 protein is about 9.82, and the amino coupling method was contemplated to immobilize the protein. Since the main ligands of the LAG3 protein are FGL1 and MHCII proteins, after the LAG3 protein was coupled, the FGL1 protein sampling method was used to verify the protein activity.
Protein coupling buffer solution: 1.05× PBS-P+; 1.02× PBS-P+
Interaction buffer solution: 1.0× PBS-P+, 5% DMSO; 1.0× PBS-P+, 2% DMSO
In this experiment, by using the CM5 chip amino coupling method, the human LAG3 protein was immobilized to the Fc2 or Fc3 channel, and the mouse LAG3 protein was immobilized to the Fc3 or Fc4 channel.
LAG3 protein coupling conditions were as follows: the concentration was about 25 µg/mL, the system was sodium acetate solution with a pH of 5.5, the chip activation time was 420 s, and the blocking time was 420 s.
LAG3 protein coupling conditions were as follows: the concentration was about 50 µg/mL, the system was sodium acetate solution with a pH of 4.5, the chip activation time was 420 s, and the blocking time was 420 s.

[1] = test system: mouse liver cancer HEPA1-6; format: in vivo; details: 27 days
Description: (1) 32 8-week-old female C57L mice were selected and divided into 5 cages. HEPA1-6 cells cultured with DMEM + 10% FBS in vitro were washed with PBS and digested with 0.25% trypsin for 3 min. The digestion was terminated with a serum-containing medium, the cells were centrifuged at 2500 rpm for 5 min, the supernatant was discarded, and the cells were resuspended with an appropriate amount of PBS twice. The number of cells was 1.14 × 10^7 cells/mL as counted with a BioRad counting instrument. The cell suspension was placed in an Erlenmeyer flask in an ice bath for later use. The tumor fluid was evenly aspirated using a 1 mL sterile syringe and inoculated 0.2 mL/mouse. After the inoculation was completed, the mice continued to be fed under the initial feeding conditions.
(2) Animal grouping: On the second day after tumor fluid inoculation of C57B/L mice, 32 mice were randomly grouped: 8 mice in a control group, 6 mice in a Compound 4-5 mg/kg group, 6 mice in a Compound 4-10 mg/kg group, 6 mice in a Compound 4-20 mg/kg group, and 6 mice in a positive control drug cyclophosphamide (CTX)-100 mg/kg group. The drug test groups were given the drugs to be tested orally once a day, and the positive control drug CTX was injected intraperitoneally once. The mice were weighed and administered daily.
(3) Drug preparation: The corresponding amounts of the drugs to be tested were weighed according to the final concentrations of the experimental groups. The drugs of the Compound 4-5 mg/kg group, the Compound 4-10 mg/kg group, and the Compound 4-20 mg/kg group were prepared with 5% CMCNa + Tween 80, and CTX was prepared with normal saline. The mice in the control group were given 5% CMCNa solution orally. The dosages were as follows: 0.4 mL/20 g body weight of the animal for intragastric administration, and 0.2 mL/20 g body weight of the animal for intraperitoneal injection.
(4) The animals were sacrificed, and the tumors were separated and weighed. The animals in each group were treated immediately 1 h after administration on the last day and weighed, and the tumor tissue was separated and weighed.

[2] = HEPA1-6, 10 mg/kg po once a day
[3] = HEPA1-6, 20 mg/kg po once a day

CCCCCCOc1ccc(C(=O)O)cc1-c1cc(C(=O)NCCCCNC(=O)C(F)(F)F)ccc1OCCCCCC [Compound 8]
interaction with the human LAG3 protein (Human LAG3 protein): interacts with the human LAG3 protein
Rmax (Human LAG3 protein): 8.639 RU
Kd (Human LAG3 protein): 7.76 µM
Note (Human LAG3 protein): Bound
kon (Human LAG3 protein): 446 M⁻¹ s⁻¹
koff (Human LAG3 protein): 0.00346 s⁻¹

CCCCCCOc1ccc2cc1-c1cc(ccc1OCCCCCC)C(=O)CCCCCC2=O [Compound 4]
interaction with the human LAG3 protein (Human LAG3 protein): interacts with the human LAG3 protein
Rmax (Human LAG3 protein): 124.7 RU
Kd (Human LAG3 protein): 52.9 µM
Note (Human LAG3 protein): Bound
kon (Human LAG3 protein): 418 M⁻¹ s⁻¹
koff (Human LAG3 protein): 0.0221 s⁻¹
Inhibition rate ([1]; HEPA1-6, 5 mg/kg po once a day): 24.72%
Tumor weight ([1]; HEPA1-6, 5 mg/kg po once a day): 0.510 ± 0.312 g
Inhibition rate [1, 2]: 52%
Tumor weight [1, 2]: 0.325 ± 0.256 g
Inhibition rate [1, 3]: 36.56%
Tumor weight [1, 3]: 0.430 ± 0.140 g
